Source: US20220274967A1, “BCAT MODULATION” (Icagen, LLC, priority 2019, published 2022)

Assays:
BCAT2 = target: T1, BCAT2 (Homo sapiens, UniProt O15382); experiment: BCAT2 enzyme inhibition (human); type: biochemical
T1 sequence (O15382 28-392): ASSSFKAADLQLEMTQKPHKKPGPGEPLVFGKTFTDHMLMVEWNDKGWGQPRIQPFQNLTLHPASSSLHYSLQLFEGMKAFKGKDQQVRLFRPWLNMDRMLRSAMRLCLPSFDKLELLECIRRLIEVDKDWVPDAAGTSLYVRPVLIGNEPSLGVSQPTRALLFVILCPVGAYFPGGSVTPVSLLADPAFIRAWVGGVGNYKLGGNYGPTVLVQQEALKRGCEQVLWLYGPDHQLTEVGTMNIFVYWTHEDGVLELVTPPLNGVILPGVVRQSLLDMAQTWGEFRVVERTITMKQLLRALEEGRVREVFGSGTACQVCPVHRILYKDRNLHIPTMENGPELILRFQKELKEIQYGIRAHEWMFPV
Experimental: In further embodiments, the functional modulation of BCAT2 is assayed using a cell-free assay. In various embodiments, the cell-free assay is an enzyme-coupled fluorescent assay. For example, the disclosure contemplates use of an assay that monitors the production of L-glutamate from branch-chain amino acids and α-ketoglutarate through the coupling of hBCATm activity to two additional enzymes, L-Glutamate Oxidase (L-GOx) and Horseradish Peroxidase (HRP). Specifically, L-GOx catabolizes L-glutamate to generate α-ketoglutarate and […], the latter being utilized by HRP and leading to the formation of fluorescent resorufin from the redox-sensitive dye Amplex Red. In some embodiments, the test compound is classified as a candidate compound if a decrease in L-glutamate is measured. In further embodiments, the test compound is classified as a candidate compound if a decrease in α-ketoglutarate is measured.

GM00371 cells = experiment: Viability assay (Cell titer glo) in the 3-HIB assay; type: cell-based, human; details: Homo sapiens, 24 h, read-out: 3HIB INHIBITION IC50 (μM) MEAN GM00371 cells Viablility Assay
Experimental: Cell Plating: Cells (Coriell Institute GM00371 cells) were plated (96-well clear bottom sterile plate; Greiner 655098) at 10,000 cells/0.1 mL in Eagle's minimum essential medium (EMEM)/15% FBS (Gibco 16000-044) with a Combi dispenser in a cell culture hood and incubated at 37° C. and 5% CO2 overnight.
Compound Dilution: Compound were prepared as 33.3× intermediate dilution in DMSO in 96 well round polystyrene plates. For 30 μM final maximum start with 30 μL of 10 mM in DMSO. 10-12 1:3 serial dilutions were prepared from left to right (20 μL+40 μL DMSO). A 10× secondary dilution was prepare in EMEM by taking 7.5 μL 33.3× and transfer to replicate 96 well round polystyrene plates and then adding 242.5 μL EMEM A 1× final dilution in EMEM was prepared by taking 50 μL 10× dilution and transferring to replicate 96 well polypropylene assay block (Costar 3956) and adding 450 μL EMEM A control was prepared for maximal compound inhibition by taking 20 μL 10 mM Reference Compound A and adding 40 μL DMSO for a concentration of 3.3 mM To 7.5 μL of the 3.3 mM Reference Compound A solution and added 242.5 μL EMEM to make a 100 μM solution. The subsequent Reference Compound A solution was diluted with EMEM to achieve a final concentration of 10 μM. The structure of Reference Compound A is:
A control was prepared for maximal compound toxicity by taking 7.5 μL Reference Compound B and 242.5 μL EMEM to make […]. 50 μL of that 100 μM Reference Compound B solution was combined with 450 μL EMEM to achieve a concentration of 30 μM. The structure of Reference Compound B is
Compound Treatment: Media was aspirated from the cells and 100 μL of D-PBS (ThermoFisher 14190144) was added and then removed. 100 μL of diluted compound was added to the cells in the place and the cells were incubated at 37° C. and 5% CO2 for 24 hours.
Viability Assay: To the cells remaining in the plate 25 μL D-PBS and 25 μL Cell titer glo reagent (Promega G7572). The plate was placed on a shaker for 2 minutes, incubated at room temperature in the dark and then read on a Clariostar microplate reader.

BCAT1 = target: T2, BCAT1 (Homo sapiens, UniProt P54687); experiment: BCAT1 enzyme inhibition (human), Glutamate Glo luminescence; type: biochemical
T2 sequence (P54687 1-386): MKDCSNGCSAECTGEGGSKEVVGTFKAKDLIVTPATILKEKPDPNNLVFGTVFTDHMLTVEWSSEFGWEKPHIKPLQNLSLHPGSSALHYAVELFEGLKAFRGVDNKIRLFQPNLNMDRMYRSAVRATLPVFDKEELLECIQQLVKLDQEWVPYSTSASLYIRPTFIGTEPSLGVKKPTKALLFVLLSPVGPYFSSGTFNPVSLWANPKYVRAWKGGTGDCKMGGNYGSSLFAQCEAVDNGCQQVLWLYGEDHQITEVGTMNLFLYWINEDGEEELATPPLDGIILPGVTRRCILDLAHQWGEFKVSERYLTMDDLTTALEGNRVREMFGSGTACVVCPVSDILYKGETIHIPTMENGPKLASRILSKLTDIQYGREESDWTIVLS
Experimental: The BCAT1 inhibitory activity of selected compounds of the present disclosure were also evaluated. Compounds were prepared as up to 10 mM stock solutions generally using DMSO as the vehicle. 10-point dose response curves were generated using the Echo-550 (Labcyte) acoustic dispenser. Compound source plates ([…]) were made by serially diluting compound stocks to create 1 mM, 0.1 mM, and 0.01 mM solutions in DMSO into Echo certified LDV plates. The Echo then serially spotted 100% DMSO stock solutions into source dose response plates to generate a semi-log fold dilution scheme. 100% DMSO was added to the spotted dose response plates to bring the final volume to 5 μL, creating a 333× stock plate. 120 nL of the dose response stock plate was then spotted into the assay plate. 10 μL of assay buffer (50 mM Tris with 0.05% TWEEN-20) was then added to the plates resulting in a 4× working concentration in the assay plate. Final assay test concentration range was 3 μM to 0.0001 μM with a final DMSO concentration of 0.3%.
BCAT1 enzyme stock was first diluted to a 4× working concentration of 0.24 μg/mL in assay buffer (final assay concentration is 0.06 ug/ml). 10 μL of the 4×BCAT1 solution was then added to the previously prepared assay plate containing test compound or controls, and incubated at room temperature, protected from light, for either 10 or 60 minutes. After the compound incubation period, 20 μL of assay buffer plus 2× substrate is added to all wells (Final assay concentration of substrates is 300 μM L-leucine and 250 μM alpha-ketoglutaric acid). Enzyme reaction was then incubated for 10 minutes at room temperature. After the 10 minute incubation, the enzymatic reaction was halted with the addition of 5 μL of 0.6N HCl and incubated for 1 min. 5 μL of 1M Tris (pH 8.0) was then added to neutralize pH. 12.5 μL of the quenched assay volume was then transferred to a white, 384 well plate and 12.5 μL of Glutamate detection reagent was added (detection reagent prepared per Promega Glutamate Glo kit instructions). Plates were then incubated for 30 minutes at room temperature, protected from light. After glutamate detection incubation period, luminescence was read on BMG Novostar and relative light units was measured and exported for analysis.
Compound modulation of BCAT1 enzymatic activity was determined as follows. IC50 values were calculated in ActivityBase, using a 4-parameter fit equation. Data was normalized to maximum inhibition form the reference agent VS558CSA (at 10 μM). Relative light units were exported for analysis and % inhibition values for each well were calculated using the following formula: […]

| IC50 (BCAT2) [µM] | IC50 (BCAT1) [µM] | Structure (SMILES) | IC50 (GM00371 cells) [µM] |
| --- | --- | --- | --- |
| 0.1 to 0.5 | ≥ 1 | O=C(N[C@@H]1CCC[C@H](n2c(-c3ccccn3)nc3cccnc32)C1)c1ccc(Br)s1 [Compound 280] |  |
| < 0.1 | < 0.1 | CNC(=O)c1cc2nc(-c3ncccc3F)n([C@H]3CCC[C@@H](NC(=O)c4ccc(Cl)s4)C3)c2cn1 [Compound 286, 3-((1S,3R)-3-(5-chlorothiophene-2-carboxamido)cyclohexyl)-2-(3-fluoropyridin-2-yl)-N-methyl-3H-imidazo[4,5-c]pyridine-6-carboxamide] |  |
| 0.1 to 0.5 | ≥ 1 | O=C(N[C@@H]1CCC[C@H](n2c(-c3ccccn3)nc3cnc(F)cc32)C1)c1ccc(Cl)s1 [Compound 288] |  |
| 0.1 to 0.5 | ≥ 1 | O=C(N[C@@H]1CCC[C@H](n2c(-c3ccccn3)nc3ccncc32)C1)c1ccc(Br)s1 [Compound 294] |  |
| < 0.1 | 0.5 to 1 | O=C(N[C@@H]1CCC[C@H](n2c(-c3ncccc3F)nc3ccncc32)C1)c1ccc(Br)s1 [Compound 298] |  |
| < 0.1 | 0.5 to 1 | O=C(N[C@@H]1CCC[C@H](n2c(-c3ccccn3)nc3cnc(F)cc32)C1)c1ccc(Br)s1 [Compound 302] |  |
| 0.1 to 0.5 | ≥ 1 | CNC(=O)c1ccn2c(C3CCCC(NC(=O)c4ccc(Br)s4)C3)c(-c3ccccc3)nc2c1 (centres unmarked) [Compound 303] |  |
| < 0.1 | ≥ 1 | N#Cc1cc2nc(-c3ccccc3C#N)n(C3CCCC(NC(=O)c4ccc(Br)s4)C3)c2cn1 (centres unmarked) [Compound 306] |  |

The next lines start with the molecule.

| Structure (SMILES) | IC50 (BCAT2) [µM] | IC50 (BCAT1) [µM] | IC50 (GM00371 cells) [µM] |
| --- | --- | --- | --- |
| CNC(=O)c1ccc2c(c1)nc(-c1ccccc1C(N)=O)n2[C@H]1CCC[C@@H](NC(=O)c2ccc(Br)s2)C1 [Compound 143] | < 0.1 | ≥ 1 | ≥ 1 |
| CNC(=O)c1ccc2c(c1)nc(-c1ccccc1OC(F)(F)F)n2[C@H]1CCC[C@@H](NC(=O)c2ccc(Br)s2)C1 [Compound 166] | < 0.1 | 0.5 to 1 | 0.1 to 0.5 |
| CNC(=O)c1ccc2c(c1)nc(-c1sccc1C)n2[C@H]1CCC[C@@H](NC(=O)c2ccc(Br)s2)C1 [Compound 169] | < 0.1 | ≥ 1 | ≥ 1 |
| CC(=O)c1ccc2c(c1)nc(-c1ccccn1)n2[C@H]1CCC[C@@H](NC(=O)c2ccc(Br)s2)C1 [Compound 196] | < 0.1 | ≥ 1 | ≥ 1 |
| CNC(=O)c1ccc2c(c1)nc(-c1ncccc1F)n2[C@H]1CCC[C@@H](NC(=O)c2ccc(C#N)s2)C1 [Compound 198] | < 0.1 | 0.1 to 0.5 | ≥ 1 |
| CNC(=O)c1ccc2c(c1)nc(-c1ccccc1[N+](=O)[O-])n2C1CCCC(NC(=O)c2ccc(C#N)s2)C1 (centres unmarked) [Compound 200] | < 0.1 | 0.1 to 0.5 | ≥ 1 |
| CNC(=O)c1cc2nc(-c3ccccc3C)n([C@H]3CCC[C@@H](NC(=O)c4ccc(Cl)s4)C3)c2cc1F [Compound 205] | < 0.1 | 0.1 to 0.5 | ≥ 1 |
| CNC(=O)c1cc2nc(-c3ccccc3F)n([C@H]3CCC[C@@H](NC(=O)c4ccc(Cl)s4)C3)c2cc1F [Compound 206] | < 0.1 | < 0.1 | 0.1 to 0.5 |
| CNC(=O)c1ccc2c(c1)nc(-c1ccccc1C(F)F)n2C1CCC[C@@H](NC(=O)c2ccc(C#N)s2)C1 (some centres unmarked) [Compound 221] | < 0.1 | 0.1 to 0.5 | ≥ 1 |
| CNC(=O)c1ccc2c(c1)nc(-c1ccccc1C(F)F)n2C1CCC[C@@H](NC(=O)c2ccc(Cl)s2)C1 (some centres unmarked) [Compound 222] | < 0.1 | 0.1 to 0.5 | 0.1 to 0.5 |
| CNC(=O)c1ccc2c(c1)nc(-c1ccccc1C(F)F)n2C1CCC[C@@H](NC(=O)c2ccc(Br)s2)C1 (some centres unmarked) [Compound 223] | < 0.1 | < 0.1 | 0.1 to 0.5 |
| CNC(=O)c1cc2nc(-c3cccc(F)c3)n(C3CCC[C@@H](NC(=O)c4ccc(Cl)s4)C3)c2cc1F (some centres unmarked) [Compound 224] | < 0.1 | 0.1 to 0.5 | 0.1 to 0.5 |
| CNC(=O)c1cc2nc(-c3cccc(F)c3)n(C3CCC[C@@H](NC(=O)c4ccc(F)s4)C3)c2cc1F (some centres unmarked) [Compound 225] | < 0.1 | ≥ 1 | ≥ 1 |
| CNC(=O)c1cc2nc(-c3ccccn3)n([C@H]3CCC[C@@H](NC(=O)c4ccc(Br)s4)C3)c2cc1Cl [Compound 238] | 0.1 to 0.5 | ≥ 1 |  |
| CNC(=O)c1cc2nc(-c3ccccn3)n([C@H]3CCC[C@@H](NC(=O)c4ccc(Cl)s4)C3)c2cc1O [Compound 240] | < 0.1 | 0.5 to 1 |  |
| CNC(=O)c1ccc2c(c1)nc(-c1ccccn1)n2[C@H]1CCC[C@@H](NC(=O)c2sc(Br)cc2F)C1 [Compound 241] | < 0.1 | ≥ 1 |  |
| CNC(=O)c1ccc2c(c1)nc(-c1ccccn1)n2[C@H]1CCC[C@@H](NC(=O)c2sc(Cl)cc2Cl)C1 [Compound 242] | > 1 | ≥ 1 |  |
| CNC(=O)c1ccc2c(c1)nc(-c1ccccn1)n2[C@H]1CCC[C@@H](NC(=O)c2sc(Cl)cc2OC)C1 [Compound 243] | 0.1 to 0.5 | ≥ 1 |  |
